Results published in patent US9409901B2, “Compositions and methods for treating or preventing diseases or disorders associated with misregulated EIF4E” (Bantam Pharmaceutical, LLC, priority 2012, dated 2016).
Where two headings read alike, the source gives them in different places. Blank lines part the entries; values can stand above or below the compound they belong to.

Tests used:
[1] = Compound solubility in DMSO; type: physicochemical
[2] = system: AU565; assay: SBH cell AU565; type: cell-based; settings: AU565 cells
[3] = system: polysomes; assay: Polysome profile; type: cell-based; settings: sucrose gradient, FIG. 11
Procedure: Cells, plated in 140 mm culture dishes; in mid log phase of growth (4-5 plates per treatment. Test compounds as 40 mM master solutions in DMSO Lysis buffer: 15 mM Tris pH 7.4, 15 mM MgCl2, 150 mM NaCl, 1% TritonX-100, 100 μg/mL cycloheximide, 1 mg/mL Heparin. Polysome buffer: 15 mM Tris pH7.4, 15 mM MgCl2, 150 mM NaCl, 100 μg/mL cycloheximide. • 1. Cells were incubated with the desired concentrations of each compound for 2 hours. • 2. Cells were incubated with 100 μg/mL cycloheximide in media for 5 min at 37 C, after which the media was removed from the late, and the plate was put on ice. • 3. Cells were washed twice with 5 mL PBS+100 μg/mL CHX. • 4. Cells were harvested, resuspended in 375 μl of LSB with 1 mM DTT and 100 U/mL RNAsin. • 5. 125 μL of lysis buffer was added, and the cells were subjected to 10 strokes in a homgenizer. • 6. The lysed cells were spun to remove cellular debris, and the supernatant was transferred to fresh tubes. • 7. 15 μL of 5M NaCl and 50 μL of 10 mg/mL Heparin was added. A 20 μL aliquot was taken and stored. The remainder of the supernatant mixture was taken to a volume of 1 mL and the OD260/280 was read. • 8. Aliquots of the supernatant mixture were then applied to a 15-50% sucrose gradient and spun for 105 minutes. The sucrose gradient was then fractionated and the OD254 was measured. […]

[4] = system: CRL-2813 human melanoma xenografts; assay: CRL-2813 human melanoma xenografts, protein expression (immunostaining); type: in vivo, mice
Procedure: • 1. CRL-2813 cancer cells were grown to obtain ≈5×10^6 cells for each tumor. • 2. Cells were harvested and washed in PBS. • 3. Harvested and washed cells were resuspended in 50% Matrigel™/medium at a density of ≈5×10^6 cells in 100 μL. • 4. 100 μL of the cell suspension was injected subcutaneously • 5. Tumors were grown to ≈150 mm^3 (approx. 2 weeks). • 1. Mice were randomly distributed to treatment and control groups and observed daily. • 2. A test compound or vehicle alone was injected twice daily with at least 10 hrs time interval between doses • Note: Vehicle: corn oil. Drug solution: 35 mg/mL of compound first dissolved in ethanol, mixed with corn oil followed by ethanol evaporation. Dosage: each dose=125 μL vehicle or drug suspension i.p. • 3. Tumor volume was measured weekly. • 4. At the conclusion of experiment, mice were sacrificed, and tumors were removed and weighed. • 5. Remove tumor and weigh • 6. The removed tumors were fixed in formalin solution or flash frozen and processed for histology/immunocytochemistry, or pull-down.
4EGI-1 inhibits expression of oncogenic proteins in melanoma tumors. CRL-2813 human melanoma xenografts were immunostained with antibodies specific for cyclin D1, cyclin E, c-myc, Bcl-2, VEGF or PCNA (FIG. 13). The bar graph is the quantification of immunostaining data (FIG. 14).

[5] = system: HeLa Cells; assay: HeLa Cells FQ IC50; type: cell-based
Procedure: Exposed tryptophan side chains are measured in a spectrometer. Tryptophan, when excited at 280 nm, emits light at 350 nm. The degree to which tryptophan emissions are quenched is a measure of binding of a test compound to eIF4E, as tryptophan side chains become “buried” upon compound binding.
HeLa cells were transfected with a bicistronic dual luciferase construct (2×EMCV Luc Plasmid-firefly and EMCV IRES dependent Renilla luciferase). One reporter construct was CAP-dependent, and the other was not. The cells were treated with DMSO in the presence or absence of various compounds described herein for 10 hours (compounds shown are in 50 μM serial dilutions). Cells were evaluated for Luc activity according to the Promega Dual Glo manufacturer instructions.

[6] = system: AU565 (breast cancer ER−/PR−, her2−nue+); assay: Cell proliferation assay, AU565; type: cell-based
Procedure: Cells: AU565 (breast cancer ER^−/PR^−, her2^−nue^+) • 1. Cells were resuspended in media containing 10% FBS and 2× gentamicin. Resuspended cells were transferred to an assay plate (100 μL aliquots; 5,200 cells/well). • 2. test compound(s) were serially diluted in assay media. Aliquots of 100 μLof the test compound solution was added to the resuspended cells, creating a total volume of 200 μL. • 3. Plates were incubated at 37 C for 91 hours. • 4. 20 μL of Promega Substrate CellTiter 96 Aqueous One Solution Reagent was added to each well. • 5. Plates were incubated at 37 C and read at 490 nm.

[7] = biological target: eIF4E/eIF4G interaction (Homo sapiens, UniProt P06730); assay: Fluorescence polarization (FP) assay of eIF4E/eIF4G interaction; type: binding
Procedure: The effect of the bound compound on the activity of eIF4e was further addressed using a Fluorescence Polarization (FP) assay. The FP assay was used to monitor the eIF4E/eIF4G interaction. The eIF4E/eIF4G complex was exposed to Structure 10, and the dissociation of eIF4G from eIF4E was measured using the FP assay.
18 amino acid FITC-labeled 4G peptide (Moerke, N. et al., Cell, 128:257-67, 2007).
Compounds as 12.5 mM solutions in DMSO
A master mixture of 20 nM peptide, 400 μM recombinant […] in NMR buffer was made. 240 μL of this master mix was transferred to a separate tube and 3.2 μL of DMSO was added. 30 μL aliquots of this mixture was then added to each of six wells of 384-well black plate. These are the maximum polarization wells. The minimum polarization wells were determined using peptide only at a concentration of 20 nM. The experimental wells were created by adding 3.2 μL of each 12.5 mM solution of a test compound to the master mixture. The compound mixtures were serially diluted to create a six point dose response curve (with six different concentrations of each test compound).
The triplicate averages of the readings were determined. […] The activity of compound at each concentration was determined by comparing the FP signal in the presence of compound to the control (no compound) value. The percent inhibition is =100−((FP compound/FP control)×100).

[8] = biological target: eIF4E (Homo sapiens, UniProt P06730); assay: Binding to eIF4E demonstrated by NMR; settings: FIG. 7
[9] = AU-565, 91 hours, read-out: ED50 (μM), anti-proliferative activity against AU-565
[10] = AU-565 cells, read-out: AU-565 EC50
[11] = fluorescence polarization, some cells give words

eIF4E/eIF4G interaction, sequence (P06730 whole entry, species assumed): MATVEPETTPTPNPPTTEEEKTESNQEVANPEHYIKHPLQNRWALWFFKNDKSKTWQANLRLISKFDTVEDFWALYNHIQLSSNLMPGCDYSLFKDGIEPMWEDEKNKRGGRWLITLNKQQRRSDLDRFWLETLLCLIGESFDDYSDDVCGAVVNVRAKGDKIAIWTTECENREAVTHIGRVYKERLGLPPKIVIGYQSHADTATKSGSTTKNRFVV
eIF4E, sequence (P06730 whole entry, species assumed): as above

Compound Solubility DMSO [1]: complete
EC50 [2]: 9 to 14 µM
SMILES: COc1cccc(-c2nc(-n3nc(C(=O)c4nn[nH]n4)c4cc(C(F)(F)F)ccc43)sc2C(C)C)c1 [Structure 13]

Compound Solubility DMSO [1]: complete
SMILES: CCOC(=O)CNC(=O)c1nn(-c2nc(-c3cccc(OC)c3)c(C(C)C)s2)c2ccc(C(F)(F)F)cc12 [Structure 47]
SBH cell AU565 (μM) [2]: none

activity in fluorescence polarization assays [7]: showed activity
EC50 [6, 10]: 16 to 25 µM
SMILES: COc1cccc(-c2nc(-n3nc(C(=O)O)c4cc(C#N)ccc43)sc2C(C)C)c1 [Structure 3]

EC50 [6, 9]: 5.6 to 8.4 µM
EC50 [6, 10]: 9.1 µM
SMILES: COc1cccc(-c2nc(-n3nc(C(=O)O)c4cc(C(F)(F)F)ccc43)sc2C(C)C)c1 [Structure 2]
% Growth Inhibition/μM ([6]; AU-565, at 40 μM): 79/40%

Compound Solubility DMSO [1]: complete
EC50 [2]: 21 to 31 µM
SMILES: COc1cccc(-c2nc(-n3nc(CC(=O)O)c4cc(Cl)ccc43)sc2C(C)C)c1 [Structure 14]

Compound Solubility DMSO [1]: complete
FP EC50 (μM) [7, 11]: some
EC50 [2]: 28 to 41 µM
SMILES: COc1cccc(-c2nc(-n3nc(CC(=O)NCC(=O)O)c4cc(Cl)ccc43)sc2C(C)C)c1 [Structure 15]

Compound Solubility DMSO [1]: complete
FP EC50 (μM) [7, 11]: good
EC50 [2]: 5.3 to 8 µM
SMILES: COc1cccc(-c2nc(-n3nc(CC(=O)N(C)CC(=O)O)c4cc(Cl)ccc43)sc2C(C)C)c1 [Structure 16]

Compound Solubility DMSO [1]: half/less
SMILES: COC(=O)CNC(=O)c1nn(-c2nc(-c3cccc(OC)c3)c(C(C)C)s2)c2ccc(C(F)(F)F)cc12 [Structure 45]
SBH cell AU565 (μM) [2]: low

Compound Solubility DMSO [1]: little/no
EC50 [2]: 18 to 28 µM
SMILES: COC(=O)CN(C)C(=O)c1nn(-c2nc(-c3cccc(OC)c3)c(C(C)C)s2)c2ccc(C(F)(F)F)cc12 [Structure 46]

More lines, now with the values behind:

SMILES: CCOC(=O)CN(C)C(=O)c1nn(-c2nc(-c3cccc(OC)c3)c(C(C)C)s2)c2ccc(C(F)(F)F)cc12 [Structure 48]
Compound Solubility DMSO [1]: half/less
EC50 [2]: 12 to 18 µM

SMILES: O=C(O)/C(Cc1ccccc1[N+](=O)[O-])=N/Nc1nc(-c2ccc(Cl)c(Cl)c2)cs1 [Structure 4EGI-1, 4EGI-1]
polysome density [3]: noticeable difference
expression of oncogenic proteins in melanoma tumors ([4]; cyclin D1, cyclin E, c-myc, Bcl-2, VEGF or PCNA immunostaining): inhibits
housekeeping proteins (e.g., actin and tubulin) ([4]; xenograft model, FIG. 14): unaffected
translation of mRNA for growth-promoting and oncogenic proteins ([4]; xenograft model, FIG. 14): down-regulates

SMILES: O=C(O)/C(Cc1ccccc1[N+](=O)[O-])=N/Nc1nc(-c2ccc(Cl)c(Cl)c2)cs1 [Structure 4EGI-1E, reference compound]
IC50 [5]: 48.1 µM
EC50 [6, 9]: 21 to 32 µM
% Growth Inhibition/μM ([6]; AU-565, at 40 μM): 60/40%

SMILES: CCc1sc(-n2nc(C(=O)O)c3cc(C(F)(F)F)ccc32)nc1-c1cccc(OC)c1 [Structure 1]
EC50 [6, 9]: 8.5 to 12.8 µM
% Growth Inhibition/μM ([6]; AU-565, at 40 μM): 70/40%

SMILES: CCc1sc(-n2nc(C(=O)O)c3cc(C(F)(F)F)ccc32)nc1-c1cccc(OC)c1 [Structure 17]
EC50 [6, 10]: 8.5 to 12.8 µM

SMILES: O=C(O)/C(Cc1ccccc1[N+](=O)[O-])=N\Nc1nc(-c2ccc(Cl)c(Cl)c2)cs1 [Structure 4EGI-1Z, reference compound]
IC50 [5]: 26.6 µM
EC50 [6, 9]: 4.8 to 7.1 µM
% Growth Inhibition/μM ([6]; AU-565, at 10 μM): 30/10%

SMILES: COc1ccc(C[C@H](N)C(=O)N[C@H]2[C@@H](O)[C@H](n3cnc4c(N(C)C)ncnc43)O[C@@H]2CO)cc1 [puromycin]
polysome density [3]: noticeable difference

SMILES: COc1cccc(-c2nc(Cn3nc(C(=O)O)c4cc(C(F)(F)F)ccc43)sc2C(C)C)c1 [Structure 9]
EC50 [7, 11]: 24 to 36 µM

SMILES: COc1cccc(-c2nc(-n3cc(C(=O)N4CCNCC4)c4cc(C(F)(F)F)ccc43)sc2C(C)C)c1 [Structure 10]
EC50 ([6]; Homo sapiens, AU565, AU-565, 91 hours, read-out: ED50 (μM), anti-proliferative activity against AU-565): 1.2 to 1.8 µM
inhibition at 3.1 µM ([6]; Homo sapiens, AU565, AU-565, at 3.1 μM, read-out: % Growth Inhibition/μM): 85%
Binding to eIF4E by NMR [8]: demonstrated
